Literature values, collected in patent US6156340A, “Orally administrable time release drug containing products” (Duquesne University of the Holy Ghost, priority 1996, dated 2000).

Assays:
[1] = repeated oral administration, long term therapy
[2] = not given; remark: listed apart in the source

What does the source list for O=C(O)Cc1ccccc1Nc1c(Cl)cccc1Cl [diclofenac sodium]?
absorption (following oral administration): completely absorbed; metabolism (in vivo): extensive metabolism; elimination half-life in plasma (plasma): relatively short elimination half-life in plasma; side effects [1]: frequently causes gastrointestinal disturbances and may cause kidney failure; water solubility [2]: high water solubility
